Read-outs that look alike come from different tables or passages of the source.
Experiments:
[1] = system: influenza A or B virus infection; assay type: in vivo, human; conditions: adult patients
[2] = system: influenza A or B virus infection; assay: Test of comparison with oseltamivir phosphate for child patients; assay type: in vivo, human
[3] = system: influenza A or B virus infection; assay type: in vivo, human
[4] = assay type: in vivo, human
Procedure: The medicinal component was administered in a single inhaled dose of 5 mg, 10 mg, 20 mg, or 40 mg to healthy adult male subjects, and the pharmacokinetics of the medicinal component and the compound (III), which is an active metabolite of the medicinal component, were evaluated.
(§1) The administration was performed using the composition prepared according to Example 41.

[5] = clinical; assay type: in vivo, human; conditions: for fe0-144 h [%]: cumulative urinary recovery until 144 hours; for fe0-144 h [%] / Cmax / half-life / AUC(0-inf): geometric mean; for Tmax / Cmax / half-life / AUC(0-inf): male, human, in vivo; for Tmax: inhaled or intranasal, single inhaled dose of medicinal component, plasma, median; for AUC(0-inf): read-out: AUC0-inf [ng/mL]
Procedure: The medicinal component was administered in a single inhaled dose of 80 mg or 120 mg to healthy adult male subjects, and the pharmacokinetics of the medicinal component were evaluated. In addition, the pharmacokinetics of the Compound (III), an active metabolite of the medicinal component, were also determined.
as §1

| Compound | upper limit of the 95% confidence interval for the difference between the median values ([1]; every dose group (20 mg, 40 mg), non-inferiority margin 18 hours) | duration of the illness compared with the oseltamivir phosphate group ([2]; child patients, each of the 20 mg group and the 40 mg group) | Difference (95% confidence interval, hours) in median value from the oseltamivir phosphate group ([3]; human, in vivo) | duration of influenza illness compared with the oseltamivir phosphate group ([3]; human, in vivo) | time after administration at which plasma concentration was less than the quantification lower limit ([4]; each dose group (5, 10, 20, 40 mg), single inhaled dose) | dose proportionality of pharmacokinetic parameters (Cmax, AUC0-tz, AUC0-inf, Ae0-144h of medicinal component; Cmax, Ae0-144h of compound (III)) ([4]; single inhaled dose 5, 10, 20 or 40 mg) | time after administration at which almost not detected in urine ([4]; urinary excretion, single inhaled dose 5 to 40 mg) | fe0-144 h [%] ([5]; 80 mg group) | fe0-144 h [%] ([5]; 120 mg group) | Tmax ([5]; 80 mg group) | Tmax ([5]; 120 mg group) | Cmax ([5]; 80 mg group) | half-life ([5]; 80 mg group) | AUC(0-inf) ([5]; 80 mg group) | Cmax ([5]; 120 mg group) | half-life ([5]; 120 mg group) | AUC(0-inf) ([5]; 120 mg group) | Median value (hours) of the duration of influenza illness ([1]; 75 mg twice daily for 5 days) | Median value (hours) of the duration of influenza illness ([2]; child patients (9 or less years old), 2 mg/kg twice daily for 5 days) | Median value (hours) of the duration of influenza illness ([3]; 75 mg twice daily for 5 days) |
| --- | --- | --- | --- | --- | --- | --- | --- | --- | --- | --- | --- | --- | --- | --- | --- | --- | --- | --- | --- | --- |
| CCCCCCCC(=O)OC[C@@H](O)[C@@H](OC)[C@@H]1OC(C(=O)O)=C[C@H](NC(=N)N)[C@H]1NC(C)=O [Medicinal component, (2R,3R,4S)-3-acetamido-4-guanidino-2-[(1R,2R)-2-hydroxy-1-methoxy-3-(octanoyloxy)propyl]-3,4-dihydro-2H-pyran-6-carboxylic acid] | less than 18 hours | shorter | −1.4(−27.6 to 7.3) hours | almost equal | ≥ 24 h | Dose proportionality was observed | ≥ 24 h | 3.5% | 2.7% | 30 min | 30 min | 335 ng/mL | 340 min | 1270 ng·h/mL | 412 ng/mL | 172 min | 1560 ng·h/mL | – | – | – |
| CCOC(=O)C1=C[C@@H](OC(CC)CC)[C@H](NC(C)=O)[C@@H](N)C1 [Oseltamivir phosphate, oseltamivir phosphate, reference compound] | – | – | – | – | – | – | – | – | – | – | – | – | – | – | – | – | – | 73.6 h | 87.3 h | 87.4 h |

From patent US9339487B2, “Dry powder pharmaceutical composition for inhalation” (priority 2008, dated 2016)
